Data set [1] can be described thus: Apparent permeability across apical to basolateral side in human Caco-2 cells at 10 uM measured after 120 mins by LC-MS/MS analysis. To be noted: for Papp A→B at 2 h, 10 µM: Caco-2. Background: Passage across Caco-2 layers is used to estimate intestinal permeability.
Data set [2] is described as follows: Apparent permeability across basolateral to apical side in human Caco-2 cells at 10 uM measured after 120 mins by LC-MS/MS analysis.
Data set [3] is described as follows: Plasma protein binding in human assessed as unbound fraction at 2 uM incubated for 4 hrs by LC/MS/MS based balanced dialysis method.
A short description of data set [4]: Plasma protein binding in mouse assessed as unbound fraction at 2 uM incubated for 4 hrs by LC/MS/MS based balanced dialysis method.
Data set [5] is described as follows: Plasma protein binding in rat assessed as unbound fraction at 2 uM incubated for 4 hrs by LC/MS/MS based balanced dialysis method.
A short description of data set [6]: Microsomal stability in mouse liver microsomes assessed as intrinsic clearance at 1 uM incubated for 60 mins in presence of NADPH regenerating system by LC-MS/MS analysis. The data set is classed as ADME, Microsome. To be noted: read-out: CLH. (Microsomes from liver hold many membrane-bound enzymes, among them those of drug oxidation.)
The nature of data set [7]: Microsomal stability in rat liver microsomes assessed as intrinsic clearance at 1 uM incubated for 60 mins in presence of NADPH regenerating system by LC-MS/MS analysis. The data set is classed as ADME, Microsome. To be noted: read-out: CLH.
Data set [8] in a line: Microsomal stability in human liver microsomes assessed as intrinsic clearance at 1 uM incubated for 60 mins in presence of NADPH regenerating system by LC-MS/MS analysis. The data set is classed as ADME, Microsome. To be noted: read-out: CLH.
A short description of data set [9]: Metabolic stability in mouse hepatocytes assessed as intrinsic clearance at 1 uM incubated for 90 mins by LC/MS/MS analysis. The data set is classed as ADME, cell-based, Hepatocyte.
Data set [10] can be described thus: Metabolic stability in rat hepatocytes assessed as intrinsic clearance at 1 uM incubated for 90 mins by LC/MS/MS analysis. The data set is classed as ADME, cell-based, Hepatocyte.
The nature of data set [11]: Metabolic stability in human hepatocytes assessed as intrinsic clearance at 1 uM incubated for 90 mins by LC/MS/MS analysis. The data set is classed as ADME, cell-based, Hepatocyte.
In data set [12] the target is T1, Cytochrome P450 1A2 (Homo sapiens, UniProt P05177).
T1 sequence (P05177 whole entry): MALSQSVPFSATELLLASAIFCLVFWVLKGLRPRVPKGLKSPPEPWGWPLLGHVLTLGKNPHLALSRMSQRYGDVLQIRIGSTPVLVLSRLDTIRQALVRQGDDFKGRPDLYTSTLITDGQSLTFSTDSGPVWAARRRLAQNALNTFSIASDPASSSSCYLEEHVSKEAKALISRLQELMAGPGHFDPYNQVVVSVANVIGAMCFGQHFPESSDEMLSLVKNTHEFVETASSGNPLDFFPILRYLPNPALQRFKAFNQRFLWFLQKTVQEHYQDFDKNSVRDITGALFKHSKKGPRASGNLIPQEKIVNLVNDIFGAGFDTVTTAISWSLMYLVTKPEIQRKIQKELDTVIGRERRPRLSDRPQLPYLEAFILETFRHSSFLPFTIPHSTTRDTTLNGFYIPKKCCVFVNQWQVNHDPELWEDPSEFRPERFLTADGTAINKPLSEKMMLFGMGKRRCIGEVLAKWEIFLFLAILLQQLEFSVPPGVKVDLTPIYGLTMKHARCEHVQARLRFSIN
Description: Inhibition of CYP1A2 in human liver microsomes incubated in presence NADPH by LC-MS/MS analysis.

The target in data set [13] is T2, Cytochrome P450 2B6 (Homo sapiens, UniProt P20813).
T2 sequence (P20813 whole entry): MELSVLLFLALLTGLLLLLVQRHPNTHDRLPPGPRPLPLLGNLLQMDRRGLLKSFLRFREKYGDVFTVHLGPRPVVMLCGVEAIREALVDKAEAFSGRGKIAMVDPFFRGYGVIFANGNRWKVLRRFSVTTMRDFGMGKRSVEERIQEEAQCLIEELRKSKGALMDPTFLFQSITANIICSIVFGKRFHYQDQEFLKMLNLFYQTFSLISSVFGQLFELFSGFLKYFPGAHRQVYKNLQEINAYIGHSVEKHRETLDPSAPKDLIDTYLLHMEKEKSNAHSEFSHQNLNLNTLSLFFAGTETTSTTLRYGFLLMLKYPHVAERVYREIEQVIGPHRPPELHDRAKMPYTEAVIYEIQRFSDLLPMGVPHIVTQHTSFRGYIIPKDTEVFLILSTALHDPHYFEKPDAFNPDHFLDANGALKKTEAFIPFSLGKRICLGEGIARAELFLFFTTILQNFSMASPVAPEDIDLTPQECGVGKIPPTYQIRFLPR
Put plainly: Inhibition of CYP2B6 in human liver microsomes incubated in presence NADPH by LC-MS/MS analysis.

Data set [14] has as its target T3, Cytochrome P450 2C8 (Homo sapiens, UniProt P10632).
T3 sequence (P10632 whole entry): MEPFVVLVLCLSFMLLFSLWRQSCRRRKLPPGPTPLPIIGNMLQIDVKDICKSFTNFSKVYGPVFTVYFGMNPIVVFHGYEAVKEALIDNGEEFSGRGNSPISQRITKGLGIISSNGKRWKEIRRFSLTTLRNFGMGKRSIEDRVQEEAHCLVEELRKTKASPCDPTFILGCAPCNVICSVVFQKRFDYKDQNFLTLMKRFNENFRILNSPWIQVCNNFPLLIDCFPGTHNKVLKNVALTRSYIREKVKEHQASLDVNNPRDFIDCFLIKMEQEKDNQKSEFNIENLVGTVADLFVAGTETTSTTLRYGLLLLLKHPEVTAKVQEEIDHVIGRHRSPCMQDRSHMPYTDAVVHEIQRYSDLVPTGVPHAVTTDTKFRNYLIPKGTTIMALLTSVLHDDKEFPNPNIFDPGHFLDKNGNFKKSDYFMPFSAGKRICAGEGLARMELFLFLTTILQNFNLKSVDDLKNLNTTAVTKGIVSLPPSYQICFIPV
Put plainly: Inhibition of CYP2C8 in human liver microsomes incubated in presence NADPH by LC-MS/MS analysis.

Data set [15] concerns the target Cytochrome P450 2C9 (Homo sapiens, UniProt P11712). Put plainly: Inhibition of CYP2C9 in human liver microsomes incubated in presence NADPH by LC-MS/MS analysis.
Data set [16] addresses Cytochrome P450 2C19 (Homo sapiens, UniProt P33261). Description: Inhibition of CYP2C19 in human liver microsomes incubated in presence NADPH by LC-MS/MS analysis.
Data set [17] concerns the target Cytochrome P450 2D6 (Homo sapiens, UniProt P10635). Put plainly: Inhibition of CYP2D6 in human liver microsomes incubated in presence NADPH by LC-MS/MS analysis.
Data set [18] has as its target Cytochrome P450 3A4 (Homo sapiens, UniProt P08684). Description: Inhibition of CYP3A4 in human liver microsomes incubated in presence NADPH by LC-MS/MS analysis.
The species named for data set [19] is Homo sapiens. Put plainly: Selectivity index, ratio of IC50 for inhibition of recombinant human JAK2 to IC50 for inhibition of recombinant human JAK1.
The species named for data set [20] is Homo sapiens. Description: Selectivity index, ratio of IC50 for inhibition of recombinant human TYK2 to IC50 for inhibition of recombinant human JAK1.
Data set [21] in a line: Efflux ratio of apparent permeability from basolateral to apical side over apical to basolateral side in human Caco-2 cells at 10 uM incubated for 120 mins by LC-MS/MS analysis.
The test system of data set [22] is Mus musculus. Description: Antiarthritic activity in collagen-induced rheumatoid arthritis DBA/1 mouse model assessed as reduction in incidence rate at 15 mg/kg, po BID administered for 14 days starting from 7 days before immunization to 21 days after immunization and measured post last dose. Type of data set: functional. Also noted: scale not given: the % may be the effect or the level left. To be noted: time 14 day.

Data set [23] has as its system Mus musculus. Description: Antiarthritic activity in collagen-induced rheumatoid arthritis DBA/1 mouse model assessed as reduction in clinical score AUC at 15 mg/kg, po BID administered for 14 days starting from 7 days before immunization to 21 days after immunization and measured on day 41 post immunization. Type of data set: functional, organism-based. To be noted: time 14.0 day.

Calls of active or inactive are those of the source. The rule behind the calls is not given here. A value given as a limit tells only on which side of the number the result lay.

Sequence of Cytochrome P450 2C9 (P11712 whole entry): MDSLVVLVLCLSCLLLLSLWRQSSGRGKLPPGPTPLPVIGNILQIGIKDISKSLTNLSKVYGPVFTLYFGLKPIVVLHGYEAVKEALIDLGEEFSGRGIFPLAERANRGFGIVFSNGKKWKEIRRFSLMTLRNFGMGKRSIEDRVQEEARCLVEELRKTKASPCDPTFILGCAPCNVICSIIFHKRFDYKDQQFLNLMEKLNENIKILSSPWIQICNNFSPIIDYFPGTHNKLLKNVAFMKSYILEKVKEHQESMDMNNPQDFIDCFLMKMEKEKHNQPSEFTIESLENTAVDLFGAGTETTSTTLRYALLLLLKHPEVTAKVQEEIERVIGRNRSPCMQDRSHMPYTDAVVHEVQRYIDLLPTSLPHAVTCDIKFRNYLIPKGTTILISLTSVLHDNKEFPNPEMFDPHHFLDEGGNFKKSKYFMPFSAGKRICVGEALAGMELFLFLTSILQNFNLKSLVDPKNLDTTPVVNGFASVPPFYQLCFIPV
Sequence of Cytochrome P450 2D6 (P10635 whole entry): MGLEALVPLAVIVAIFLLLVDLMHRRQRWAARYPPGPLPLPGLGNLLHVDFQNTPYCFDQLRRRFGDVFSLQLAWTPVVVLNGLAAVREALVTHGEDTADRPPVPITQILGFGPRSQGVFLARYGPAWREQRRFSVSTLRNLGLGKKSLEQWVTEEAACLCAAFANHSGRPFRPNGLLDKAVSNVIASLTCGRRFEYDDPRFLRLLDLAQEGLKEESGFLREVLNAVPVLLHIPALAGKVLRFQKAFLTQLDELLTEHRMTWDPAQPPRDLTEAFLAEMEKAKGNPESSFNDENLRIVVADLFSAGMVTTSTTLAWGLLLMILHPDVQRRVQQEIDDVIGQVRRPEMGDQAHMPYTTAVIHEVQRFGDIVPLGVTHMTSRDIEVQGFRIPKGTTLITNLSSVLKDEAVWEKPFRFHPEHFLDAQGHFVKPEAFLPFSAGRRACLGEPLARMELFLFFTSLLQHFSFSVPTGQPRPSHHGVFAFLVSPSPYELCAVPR
Sequence of Cytochrome P450 2C19 (P33261 whole entry): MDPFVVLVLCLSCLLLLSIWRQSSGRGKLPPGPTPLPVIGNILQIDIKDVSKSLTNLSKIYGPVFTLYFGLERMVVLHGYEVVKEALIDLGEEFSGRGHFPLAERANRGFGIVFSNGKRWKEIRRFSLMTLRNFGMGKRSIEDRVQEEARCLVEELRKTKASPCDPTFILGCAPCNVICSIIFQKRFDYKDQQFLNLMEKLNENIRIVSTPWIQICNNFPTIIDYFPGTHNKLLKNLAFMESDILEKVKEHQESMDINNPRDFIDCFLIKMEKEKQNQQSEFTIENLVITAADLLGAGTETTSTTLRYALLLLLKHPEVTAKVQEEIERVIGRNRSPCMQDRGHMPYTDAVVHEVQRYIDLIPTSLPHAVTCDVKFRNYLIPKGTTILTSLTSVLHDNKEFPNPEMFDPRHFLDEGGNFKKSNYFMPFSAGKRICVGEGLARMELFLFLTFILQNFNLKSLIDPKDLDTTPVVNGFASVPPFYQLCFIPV
Sequence of Cytochrome P450 3A4 (P08684 whole entry): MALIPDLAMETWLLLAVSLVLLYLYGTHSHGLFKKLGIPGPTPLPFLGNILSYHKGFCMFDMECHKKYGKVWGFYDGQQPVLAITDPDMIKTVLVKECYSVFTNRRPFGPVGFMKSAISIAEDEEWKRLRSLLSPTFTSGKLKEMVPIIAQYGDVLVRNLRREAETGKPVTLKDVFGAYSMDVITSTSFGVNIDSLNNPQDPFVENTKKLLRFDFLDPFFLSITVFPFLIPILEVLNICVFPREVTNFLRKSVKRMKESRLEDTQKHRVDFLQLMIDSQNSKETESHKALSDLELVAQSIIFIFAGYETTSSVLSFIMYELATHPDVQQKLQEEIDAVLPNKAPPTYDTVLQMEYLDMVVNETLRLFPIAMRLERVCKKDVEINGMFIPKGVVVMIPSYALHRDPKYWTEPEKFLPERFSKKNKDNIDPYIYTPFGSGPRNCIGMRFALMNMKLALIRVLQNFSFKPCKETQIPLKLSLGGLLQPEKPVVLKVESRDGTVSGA

The Papp A→B is how fast a substance crosses the layer from the apical side. Broadly, the Papp B→A is the apparent permeability from the basolateral to the apical side of a cell layer. Usually fraction unbound stands for the share of the substance not bound to proteins or other matrix. In general, IC50 refers to the point on the concentration scale where inhibition reaches its midpoint. With `N#CCC(=O)N1CC2(CCC(c3cccc4nc(NC(=O)C5CC5)nn34)CC2)C1`, the apical-to-basolateral permeability (Papp A→B) at 2 h, 10 µM in [1] came out at 0.1 ×10⁻⁶ cm/s. In addition, in data set [2], the Papp B→A at 2 h, 10 µM is 20.4 ×10⁻⁶ cm/s. The fraction unbound at 4 h, 2 µM in data set [3] was determined as 0.515; in data set [4] it was 0.479; in data set [5], 0.544. The microsomal CLint at 1 µM in data set [6], in [7] and in data set [8] was below 9.6 µL/min/mg each time. Besides, the CLH in [9] is below 6.6 µL/min/mg; in [10], below 6.4 µL/min/mg; in data set [11], below 6.4 µL/min/mg. Besides, the IC50 in [12], in data set [13], in [14], in data set [15], in data set [16] and in data set [17] was above 100 µM throughout. Besides, the IC50 in data set [18] is above 100 µM.

As usually defined, the efflux ratio is a quotient of directional permeabilities that is used to spot active efflux. For the molecule `O=C(Nc1nc2cccc(C3CCC(NC(=O)C4(F)CC4)CC3)n2n1)C1CC1` (stereo not drawn), the results for the Ratio IC50 in data set [19] and in data set [20] were 11.6 and 4.1, respectively. In addition, the apical-to-basolateral permeability (Papp A→B) at 2 h, 10 µM in data set [1] came to 4.36 ×10⁻⁶ cm/s. In data set [2], the Papp B→A at 2 h, 10 µM is 28.6 ×10⁻⁶ cm/s. Further, the efflux ratio at 2 h, 10 µM in data set [21] came out at 6.57. Besides, the values for the fraction unbound at 4 h, 2 µM in data set [3], in data set [4] and in data set [5] were 0.306, 0.28 and 0.196, respectively. Moreover, the microsomal CLint at 1 µM in data set [6] is 10.6 µL/min/mg; in [7], below 9.6 µL/min/mg; in [8] it was below 9.6 µL/min/mg. Moreover, the results for the CLH in data set [9], in data set [10] and in [11] were 15.3 µL/min/mg, below 6.4 µL/min/mg and below 6.4 µL/min/mg, respectively. Further, the IC50 in [12], in data set [13], in [14], in data set [15], in [16] and in data set [17] was above 100 µM each time. The molecule further gave an IC50 in data set [18] above 100 µM.

For the molecule `O=C(Nc1nc2cccc(-c3ccc(CN4CCS(=O)(=O)CC4)cc3)n2n1)C1CC1` [FILGOTINIB], the Papp in [1] (caco-2, 2 h, 10 µM) is 0.28 10^-6 cm/s. Besides, the Papp B→A at 2 h, 10 µM in data set [2] is 24.5 ×10⁻⁶ cm/s. For the same molecule, the fraction unbound at 4 h, 2 µM in data set [3] amounted to 0.518; in [4] it was 0.316; in [5], 0.399. The microsomal CLint at 1 µM in data set [6], in data set [7] and in data set [8] was below 9.6 µL/min/mg each time. For the same molecule, the CLH in [9] is 22.3 µL/min/mg; in data set [10] it was below 6.4 µL/min/mg; in [11], below 6.4 µL/min/mg. Moreover, the IC50 in data set [12] is 65.6 µM; in data set [13], above 100 µM; in data set [14], above 100 µM; in data set [15], above 100 µM; in [16], 88.2 µM; in data set [17], above 100 µM. For the same molecule, the Activity in data set [22] was found to be 100%. The result in [23] was Active.

(Values after ChEMBL document CHEMBL5150077, “Identification of TUL01101: A Novel Potent and Selective JAK1 Inhibitor for the Treatment of Rheumatoid Arthritis” (J Med Chem, 2022).)
